According to patent publication US12528837B2, “Aryl substituted polymyxin derivatives” (priority 2018, dated 2026):
≈ marks a conversion by molar mass, not a printed value. Where two headings read alike, the source gives them in different places. Where a SMILES comes first, the peptide text is derived from it. Bridges are numbered along the chain shown (N, C = ends). [ ]: non-standard residue; d: D form. The star is where a group is joined. X6 = CC(C)Cc1cccc([C@@H](CN)CC(=O)*)c1; X3 = CC(C)c1cccc([C@@H](CN)CC(=O)*)c1; X9 = CC(C)c1cccc([C@H](CN)CC(=O)*)c1; X8 = NC[C@@H](CC(=O)*)Cc1cccc(Cl)c1; X12 = NC[C@H](CC(=O)*)c1cccc(Br)c1; X13 = Cc1cccc([C@H](CN)CC(=O)*)c1; X5 = NC[C@H](CC(=O)*)c1ccc(Cl)cc1; Dab = NCC[C@H](N)C(=O)O; Abu = CC[C@H](N)C(=O)O; Dap = NC[C@H](N)C(=O)O

How the values were obtained:
HK-2 cells = experiment: In vitro renal cell toxicity assay (HK-2); format: cell-based
Method in brief: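 HK-2 cells seeded 7,500/well, adhered overnight, then exposed to compound for 24 h at 37° C, 5% CO2, with 5% water and 0.5% DMSO. Background-subtracted, vehicle-normalised dose-response fitted with bottom fixed at zero; IC50 reported relative to PMB in the same run, median where repeated.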

[1] = Kidney drug level after subcutaneous dose in mouse; format: in vivo; conditions: mouse, in vivo
Method in brief: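 Mice were euthanised four hours after subcutaneous dosing. Both kidneys were trimmed, weighed, snap-frozen, then homogenised with zirconium oxide beads. After centrifugation (13,000 rpm, 6 °C, 10 min), supernatants were analysed by LC-MS-MS.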

E. coli CA58 = format: cell-based
Method in brief: (§1)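 First, isolated colonies from an 18-24 hour Mueller-Hinton plate were suspended and standardised to 0.5 McFarland. Testing was then carried out in duplicate. For repeatedly tested compounds the reported MIC, expressed in μg/mL, is the median result.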

K. pneumoniae CA64 = format: cell-based
Method in brief: as §1

P. aeruginosa CCUG 59347 = format: cell-based
Method in brief: as §1

[2] = system: A. baumannii ATCC BAA-747; format: cell-based
Procedure: (§2) The inoculum was prepared by making a direct suspension of isolated colonies (selected from an 18-24 hour Mueller-Hinton agar plate) adjusted to the 0.5 McFarland standard. […] The assays were performed in duplicate. […] The MIC values are quoted in μg/mL.

A. baumannii NCTC 13424 = format: cell-based
Procedure: as §2

E. coli ATCC 25922 = format: cell-based
Procedure: as §2

K. pneumoniae ATCC 13822 = format: cell-based
Procedure: as §2

P. aeruginosa ATCC 27853 = format: cell-based
Procedure: as §2

[3] = Renal toxicity in mice, separate experiment Example 17 vs PMB; format: in vivo, mouse; conditions: sc 25 mg free base/kg, four doses at 8 hr intervals
Procedure: After the fourth dose animals were transferred into individual metabolic cages and urine collected for 24 hours for determination of urinary biomarkers. After collecting urine mice were euthanised and the kidneys harvested for histopathology.
In a separate experiment Example 17 was compared with PMB.

[4] = cation-adjusted Mueller-Hinton Broth, 18-20 h, 35° C.

| tissue level at time at 4 h ([1]; sc, 17.2 mg/kg) [ng/g] | MIC E. coli CA58 (E. coli CA58; CA58) [µg/mL] | MIC K. pneumoniae CA64 (K. pneumoniae CA64; CA64) [µg/mL] | MIC P. aeruginosa CCUG 59347 (P. aeruginosa CCUG 59347; CCUG 59347) [µg/mL] | MIC A. baumannii ATCC BAA-747 ([2]; ATCC BAA-747) [µg/mL] | MIC A. baumannii NCTC 13424 (A. baumannii NCTC 13424; NCTC 13424) [µg/mL] | MIC E. coli ATCC 25922 (E. coli ATCC 25922; ATCC 25922) [µg/mL] | MIC K. pneumoniae ATCC 13822 (K. pneumoniae ATCC 13822; ATCC 13822) [µg/mL] | MIC P. aeruginosa ATCC 27853 (P. aeruginosa ATCC 27853; ATCC 27853) [µg/mL] | Structure (SMILES) | HK-2 rel to PMB (HK-2 cells) | MIC E. coli CA58 (E. coli CA58; [4]) [µg/mL] | MIC K. pneumoniae CA64 (K. pneumoniae CA64; [4]) [µg/mL] | MIC P. aeruginosa CCUG 59347 (P. aeruginosa CCUG 59347; [4]) [µg/mL] | MIC A. baumannii ATCC BAA-747 [2, 4] [µg/mL] | MIC A. baumannii NCTC 13424 (A. baumannii NCTC 13424; [4]) [µg/mL] | MIC E. coli ATCC 25922 (E. coli ATCC 25922; [4]) [µg/mL] | MIC K. pneumoniae ATCC 13822 (K. pneumoniae ATCC 13822; [4]) [µg/mL] | MIC P. aeruginosa ATCC 27853 (P. aeruginosa ATCC 27853; [4]) [µg/mL] | also measured |
| --- | --- | --- | --- | --- | --- | --- | --- | --- | --- | --- | --- | --- | --- | --- | --- | --- | --- | --- | --- |
| 538000 | 8 (≈ 6.99 µM) | 2 (≈ 1.75 µM) | 0.5 (≈ 0.437 µM) | 0.25 (≈ 0.218 µM) | 0.25 (≈ 0.218 µM) | 0.25 (≈ 0.218 µM) | 0.25 (≈ 0.218 µM) | 0.25 (≈ 0.218 µM) | CC(C)C[C@@H]1NC(=O)[C@@H](Cc2ccccc2)NC(=O)[C@H](CCN)NC(=O)[C@@H](NC(=O)[C@H](CN)NC(=O)[C@@H](NC(=O)C[C@@H](CN)c2ccc(Cl)cc2)[C@@H](C)O)CCNC(=O)[C@H]([C@@H](C)O)NC(=O)[C@H](CCN)NC(=O)[C@H](CCN)NC1=O [Example 2, (R)-4-amino-3-(4- chlorophenyl)butanoyl- Thr-Dap-Cyclo[Dab- Dab-DPhe-Leu-Dab- Dab-Thr]] (X5-T[Dap][Dab][Dab][dF]L[Dab][Dab]T; lactam 3-C) | 7.2 |  |  |  |  |  |  |  |  | 4 hr kidney level/rel. cytotoxicity [1]: 75 |
| 163000 | 4 (≈ 3.45 µM) | 16 (≈ 13.8 µM) | 0.5 (≈ 0.431 µM) | 0.5 (≈ 0.431 µM) | 0.25 (≈ 0.216 µM) | 0.5 (≈ 0.431 µM) | 0.5 (≈ 0.431 µM) | 0.25 (≈ 0.216 µM) | CC(C)C[C@@H]1NC(=O)[C@@H](Cc2ccccc2)NC(=O)[C@H](CCN)NC(=O)[C@@H](NC(=O)[C@H](CN)NC(=O)[C@@H](NC(=O)C[C@H](CN)Cc2cccc(Cl)c2)[C@@H](C)O)CCNC(=O)[C@H]([C@@H](C)O)NC(=O)[C@H](CCN)NC(=O)[C@H](CCN)NC1=O [Example 11, (R)-4-amino-3-(3- chlorobenzyl)butanoyl- Thr-Dap-Cyclo[Dab- Dab-DPhe-Leu-Dab- Dab-Thr]. Isomer 1] (X8-T[Dap][Dab][Dab][dF]L[Dab][Dab]T; lactam 3-C) | 5.2 |  |  |  |  |  |  |  |  |  |
|  |  |  |  |  |  |  |  |  | CC(C)C[C@@H]1NC(=O)[C@@H](CC(C)C)NC(=O)[C@H](CCN)NC(=O)[C@@H](NC(=O)[C@H](CN)NC(=O)[C@@H](NC(=O)C[C@@H](CN)c2cccc(C(C)C)c2)[C@@H](C)O)CCNC(=O)[C@H]([C@@H](C)O)NC(=O)[C@H](CCN)NC(=O)[C@H](CCN)NC1=O [Example 16, (R)-4-amino-3-(3- isopropylphenyl) butanoyl-Thr-Dap- Cyclo[Dab-Dab-DLeu- Leu-Dab-Dab-Thr]] (X9-T[Dap][Dab][Dab][dL]L[Dab][Dab]T; lactam 3-C) |  | 16 (≈ 14.3 µM) | 8 (≈ 7.15 µM) | 1 (≈ 0.894 µM) | 0.5 (≈ 0.447 µM) | 0.5 (≈ 0.447 µM) | 0.5 (≈ 0.447 µM) | 0.25 (≈ 0.224 µM) | 0.5 (≈ 0.447 µM) |  |
|  |  |  |  |  |  |  |  |  | CC[C@@H]1NC(=O)[C@@H](Cc2ccccc2)NC(=O)[C@H](CCN)NC(=O)[C@@H](NC(=O)[C@H](CN)NC(=O)[C@@H](NC(=O)C[C@H](CN)c2cccc(C(C)C)c2)[C@@H](C)O)CCNC(=O)[C@H]([C@@H](C)O)NC(=O)[C@H](CCN)NC(=O)[C@H](CCN)NC1=O [Example 17] (X3-T[Dap][Dab][Dab][dF][Abu][Dab][Dab]T; lactam 3-C) |  | 8 (≈ 7.12 µM) | 16 (≈ 14.2 µM) | 0.25 (≈ 0.222 µM) | 0.06 (≈ 0.0534 µM) | 0.06 (≈ 0.0534 µM) |  |  |  | HK-2 rel to PMB (HK-2 cells; IC50 relative to PMB in the same experiment, 24 h): 29.0; tissue level at time at 4 h ([1]; mice, 17.2 mg/kg free base sc, 4 h, read-out: 4 hr kidney level): 231000 ng/g; Basophilic tubules (histopathology) ([3]; animals per grade): 3 normal/2 minimal; Tubular degeneration/necrosis (histopathology) ([3]; animals per grade): All normal; Albumin, elevation compared with vehicle control ([3]; urine): 2.7×; Cystatin C, elevation compared with vehicle control ([3]; urine): 1.8×; KIM-1, elevation compared with vehicle control ([3]; urine): 4.7× |
| 386000 | 32 (≈ 28.9 µM) | 64 (≈ 57.8 µM) | 1 (≈ 0.904 µM) | 0.25 (≈ 0.226 µM) | 0.25 (≈ 0.226 µM) | 0.25 (≈ 0.226 µM) | 0.25 (≈ 0.226 µM) | 0.25 (≈ 0.226 µM) | CC(C)C[C@H]1NC(=O)[C@H](CCN)NC(=O)[C@@H](NC(=O)[C@H](CN)NC(=O)[C@@H](NC(=O)C[C@H](CN)c2cccc(C(C)C)c2)[C@@H](C)O)CCNC(=O)[C@H]([C@@H](C)O)NC(=O)[C@H](CCN)NC(=O)[C@H](CCN)NC(=O)[C@H]([C@@H](C)O)NC1=O [Example 19, (S)-4-amino-3-(3- isopropylphenyl) butanoyl-Thr-Dap- Cyclo[Dab-Dab-DLeu- Thr-Dab-Dab-Thr]] (X3-T[Dap][Dab][Dab][dL]T[Dab][Dab]T; lactam 3-C) | 101.4 |  |  |  |  |  |  |  |  |  |
|  |  |  |  |  |  |  |  |  | CC(C)C[C@H]1NC(=O)[C@H](CCN)NC(=O)[C@@H](NC(=O)[C@H](CN)NC(=O)[C@@H](NC(=O)C[C@@H](CN)c2cccc(C(C)C)c2)[C@@H](C)O)CCNC(=O)[C@H]([C@@H](C)O)NC(=O)[C@H](CCN)NC(=O)[C@H](CCN)NC(=O)[C@H]([C@@H](C)O)NC1=O [Example 20, (R)-4-amino-3-(3- isopropylphenyl) butanoyl-Thr-Dap- Cyclo[Dab-Dab-DLeu- Thr-Dab-Dab-Thr]] (X9-T[Dap][Dab][Dab][dL]T[Dab][Dab]T; lactam 3-C) |  | 64 (≈ 57.8 µM) | 64 (≈ 57.8 µM) | 2 (≈ 1.81 µM) | 2 (≈ 1.81 µM) | 1 (≈ 0.904 µM) | 1 (≈ 0.904 µM) | 2 (≈ 1.81 µM) | 0.5 (≈ 0.452 µM) |  |
|  |  |  |  |  |  |  |  |  | Cc1cccc([C@H](CN)CC(=O)N[C@H](C(=O)N[C@@H](CN)C(=O)N[C@H]2CCNC(=O)[C@H]([C@@H](C)O)NC(=O)[C@H](CCN)NC(=O)[C@H](CCN)NC(=O)[C@H](CC(C)C)NC(=O)[C@@H](Cc3ccccc3)NC(=O)[C@H](CCN)NC2=O)[C@@H](C)O)c1 [Example 22, (R)-4-amino-3-(m- toly)butanoyl-Thr- Dap-Cyclo[Dab-Dab- DPhe-Leu-Dab-Dab- Thr]] (X13-T[Dap][Dab][Dab][dF]L[Dab][Dab]T; lactam 3-C) |  | 16 (≈ 14.2 µM) | 8 (≈ 7.12 µM) | 0.5 (≈ 0.445 µM) | 1 (≈ 0.889 µM) | 1 (≈ 0.889 µM) | 0.25 (≈ 0.222 µM) | 0.25 (≈ 0.222 µM) | 0.25 (≈ 0.222 µM) |  |
| 353000 | 8 (≈ 7.24 µM) | 8 (≈ 7.24 µM) | 0.5 (≈ 0.453 µM) | 0.06 (≈ 0.0543 µM) | 0.03 (≈ 0.0272 µM) | 0.06 (≈ 0.0543 µM) | 0.5 (≈ 0.453 µM) | 0.25 (≈ 0.226 µM) | CC[C@@H]1NC(=O)[C@@H](CC(C)C)NC(=O)[C@H](CCN)NC(=O)[C@@H](NC(=O)[C@H](CN)NC(=O)[C@@H](NC(=O)C[C@H](CN)c2cccc(CC(C)C)c2)[C@@H](C)O)CCNC(=O)[C@H]([C@@H](C)O)NC(=O)[C@H](CCN)NC(=O)[C@H](CCN)NC1=O [Example 26, (S)-4-amino-3-(3- isobutylphenyl)butanoyl- Thr-Dap- Cyclo[Dab-Dab-DLeu- Abu-Dab-Dab-Thr]] (X6-T[Dap][Dab][Dab][dL][Abu][Dab][Dab]T; lactam 3-C) | >58 |  |  |  |  |  |  |  |  |  |
|  |  |  |  |  |  |  |  |  | CC[C@@H]1NC(=O)[C@@H](CC(C)C)NC(=O)[C@H](CCN)NC(=O)[C@@H](NC(=O)[C@H](CN)NC(=O)[C@@H](NC(=O)C[C@@H](CN)c2cccc(Br)c2)[C@@H](C)O)CCNC(=O)[C@H]([C@@H](C)O)NC(=O)[C@H](CCN)NC(=O)[C@H](CCN)NC1=O [Example 33, (R)-4-amino-3-(3- bromophenyl)butanoyl- Thr-Dap-Cyclo[Dab- Dab-DLeu-Abu-Dab- Dab-Thr],] (X12-T[Dap][Dab][Dab][dL][Abu][Dab][Dab]T; lactam 3-C) |  | 64 (≈ 56.8 µM) | 16 (≈ 14.2 µM) | 0.5 (≈ 0.444 µM) | 1 (≈ 0.887 µM) | 1 (≈ 0.887 µM) | 0.5 (≈ 0.444 µM) | 0.5 (≈ 0.444 µM) | 0.5 (≈ 0.444 µM) |  |
